How the values were obtained:
Conditions in all cases: exposure time: 72 h
E13 [1] = patient-derived glioblastoma stem cells of classical subtype; assay: surviving fraction (nuclei count normalised to DMSO); higher = more cells surviving (less toxic)
E21 [2] = patient-derived glioblastoma stem cells of mesenchymal subtype; assay: as above
E28 [3] = patient-derived glioblastoma stem cells of classical subtype; assay: as above
E31 [4] = patient-derived glioblastoma stem cells of proneural subtype; assay: as above
E34 [5] = patient-derived glioblastoma stem cells of proneural subtype; assay: as above
E57 [6] = patient-derived glioblastoma stem cells of mesenchymal subtype; assay: as above
FT3469 [7] = normal neural stem cell line; assay: as above
E13 [8] = assay: phenotypic distance (Euclidean, principal components) from DMSO controls (arbitrary units); higher = stronger morphological change
E21 [9] = assay: as above
E28 [10] = assay: as above
E31 [11] = assay: as above
E34 [12] = assay: as above
E57 [13] = assay: as above
FT3469 [14] = assay: as above
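Throughout, for phenotypic distance (Euclidean, principal components) from DMSO controls: cell Painting imaging in 384-well plates, CellProfiler features reduced to at least 20 principal components, Euclidean distance versus same-plate DMSO vehicle wells (0.1% v/v), median over six images per well.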
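Throughout, for surviving fraction (nuclei count normalised to DMSO): nuclei counted by high-content imaging of Hoechst-stained cells in laminin-coated 384-well plates, relative to 0.1% DMSO vehicle wells, with staurosporine as cell-death control.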

Cc1ccc2c(c1)C1(CCN(CCc3nc(-c4ccccc4)oc3C)CC1)OC(=O)N2
Conditions	phenotypic distance	surviving fraction
E13 [1], 4.1 nM	–	0.988
E13 [1], 12.3 nM	–	1.09
E13 [1], 37 nM	–	1.12
E13 [1], 111.1 nM	–	1.07
E13 [1], 333.3 nM	–	1.12
E13 [1], 1000 nM	–	1.11
E13 [1], 3000 nM	–	0.943
E13 [8], 4.1 nM	2.72	–
E13 [8], 12.3 nM	2.97	–
E13 [8], 37 nM	1.42	–
E13 [8], 111.1 nM	0.52	–
E13 [8], 333.3 nM	0.547	–
E13 [8], 1000 nM	0.819	–
E13 [8], 3000 nM	0.711	–
E21 [2], 4.1 nM	–	0.932
E21 [2], 12.3 nM	–	0.961
E21 [2], 37 nM	–	0.956
E21 [2], 111.1 nM	–	1.07
E21 [2], 333.3 nM	–	0.988
E21 [2], 1000 nM	–	0.923
E21 [2], 3000 nM	–	0.891
E21 [9], 4.1 nM	1.42	–
E21 [9], 12.3 nM	0.605	–
E21 [9], 37 nM	4.58	–
E21 [9], 111.1 nM	0.716	–
E21 [9], 333.3 nM	0.433	–
E21 [9], 1000 nM	0.642	–
E21 [9], 3000 nM	1.29	–
E28 [3], 4.1 nM	–	1.07
E28 [3], 12.3 nM	–	0.977
E28 [3], 37 nM	–	1.11
E28 [3], 111.1 nM	–	0.99
E28 [3], 333.3 nM	–	1.11
E28 [3], 1000 nM	–	0.938
E28 [3], 3000 nM	–	1.1
E28 [10], 4.1 nM	0.761	–
E28 [10], 12.3 nM	1.33	–
E28 [10], 37 nM	0.46	–
E28 [10], 111.1 nM	0.636	–
E28 [10], 333.3 nM	0.695	–
E28 [10], 1000 nM	0.667	–
E28 [10], 3000 nM	0.74	–
E31 [4], 4.1 nM	–	1.04
E31 [4], 12.3 nM	–	0.99
E31 [4], 37 nM	–	1.01
E31 [4], 111.1 nM	–	0.979
E31 [4], 333.3 nM	–	1.04
E31 [4], 1000 nM	–	0.996
E31 [4], 3000 nM	–	0.955
E31 [11], 4.1 nM	1.24	–
E31 [11], 12.3 nM	0.61	–
E31 [11], 37 nM	0.972	–
E31 [11], 111.1 nM	0.485	–
E31 [11], 333.3 nM	0.605	–
E31 [11], 1000 nM	0.491	–
E31 [11], 3000 nM	0.687	–
E34 [5], 4.1 nM	–	0.851
E34 [5], 12.3 nM	–	1.03
E34 [5], 37 nM	–	0.875
E34 [5], 111.1 nM	–	0.878
E34 [5], 333.3 nM	–	1.17
E34 [5], 1000 nM	–	1.07
E34 [5], 3000 nM	–	1.05
E34 [12], 4.1 nM	0.895	–
E34 [12], 12.3 nM	2	–
E34 [12], 37 nM	0.587	–
E34 [12], 111.1 nM	0.749	–
E34 [12], 333.3 nM	0.998	–
E34 [12], 1000 nM	0.765	–
E34 [12], 3000 nM	0.942	–
E57 [6], 4.1 nM	–	1.05
E57 [6], 12.3 nM	–	1.03
E57 [6], 37 nM	–	0.923
E57 [6], 111.1 nM	–	1.01
E57 [6], 333.3 nM	–	1.04
E57 [6], 1000 nM	–	0.967
E57 [6], 3000 nM	–	1.02
E57 [13], 4.1 nM	0.955	–
E57 [13], 12.3 nM	0.495	–
E57 [13], 37 nM	0.64	–
E57 [13], 111.1 nM	0.513	–
E57 [13], 333.3 nM	0.49	–
E57 [13], 1000 nM	0.453	–
E57 [13], 3000 nM	0.766	–
FT3469 [7], 4.1 nM	–	0.873
FT3469 [7], 12.3 nM	–	1.15
FT3469 [7], 37 nM	–	1.04
FT3469 [7], 111.1 nM	–	0.795
FT3469 [7], 333.3 nM	–	1.1
FT3469 [7], 1000 nM	–	1.03
FT3469 [7], 3000 nM	–	0.991
FT3469 [14], 4.1 nM	1.5	–
FT3469 [14], 12.3 nM	0.887	–
FT3469 [14], 37 nM	0.645	–
FT3469 [14], 111.1 nM	1.16	–
FT3469 [14], 333.3 nM	0.543	–
FT3469 [14], 1000 nM	0.575	–
FT3469 [14], 3000 nM	0.661	–

Reference: the supplement of paper PMC13207355
